{"source": "patent US11179349B2", "about": "“Use of tumor gene methylation regulator and anti-tumor drugs” (priority 2016, dated 2021)", "key": {"[1]": {"tested_on": "MCF-7 (human breast cancer)", "test": "CellTiter-Glo luminescent cell viability assay, human breast cancer cells", "format": "cell-based", "conditions": "MCF7, MCF-7, 48 hours, drug used alone", "experimental": "The above tumor cell line derived from ATCC was cultured in an incubator with 5% CO2 at 37° C.\n(4). The culture plate was cultured overnight in an incubator with 5% CO2 and 100% relative humidity at 37° C."}, "[2]": {"tested_on": "human lung cancer xenografts (A-549)", "test": "Experiment 4: suppression of lung cancer (A-549) xenografts with cisplatin and 3′-deoxyadenosine", "format": "in vivo, BALB/c nude mouse", "experimental": "(§1) Human leukemia cells HL60, human gastric cancer cell line SGC-7901, human breast cancer cells MCF-7, human colon cancer cells HT-29, human lung cancer cells A-549, and human hepatoma cells Huh-7 were routinely cultured in vitro and digested and centrifuged to prepare cell suspensions at a concentration of about 1×10^7 cells/mL, respectively, which were inoculated subcutaneously in the right armpits of the mice at 0.2 mL per mouse.\nThe inoculated well-grown subcutaneously xenografted tumors were removed and cut into tumor tissue blocks with a size of about 2×2×2 mm for later use. After being anesthetized, the mice were placed in the left lateral decubitus position, the tumor tissue blocks were put into the armpits of the mice, the skin was sutured and disinfected, and then the mice were put back into the cages and fed normally. The mice were grouped after the tumors grew to have a diameter of about 7 to 8 mm. Generally, after being grouped, the mice were administered by gavage with a drug or with a blank solution (solvent: 0.9% (g/mL) sodium chloride injection) for continuous 14 days, once per day, administrated at a volume of 20 mL/kg. Special situations will be described separately in corresponding examples. The general symptoms of the animals were observed before and after the administration. The longer diameter (a) and shorter diameter (b) of each of the solid tumors were measured twice per week after the first administration, the tumor volume was calculated according to the formula: volume (V)=½×a×b^2, and the animals were weighed. The drug was discontinued after administration for 14 days. On the 7th day after stopping the administration, the animals were weighed and then were sacrificed by cervical dislocation, and the solid tumors were removed and weighed. The data obtained were analyzed by SPSS statistical analysis software.\nFormula for Evaluation of the Therapeutic Efficacy: Tumor-growth inhibition rate=(average tumor weight in solvent control group−average tumor weight in administered control group)/average tumor weight in solvent control group×100%.\nOn the 14th day after inoculation of the mice with lung cancer A-549 cells, xenografted tumor models were successful, and then treated with drugs. Refer to FIG. 4 for experimental results."}, "Huh-7 (human hepatoma)": {"tested_on": "Huh-7 (human hepatoma)", "test": "CellTiter-Glo luminescent cell viability assay, human hepatoma cells", "conditions": "Huh-7, 48 h", "description": "The above tumor cell line derived from ATCC was cultured in an incubator with 5% CO2 at 37° C. The cell line was subcultured twice per week by trypsinization. Cells in the logarithmic growth phase were used for plating.\nThe concentration of the cells was adjusted to 2×10^4 cells/ml (about 2.0×10^3 cells/well).\n(3) 100 μl of a cell suspension was added to each well in the culture plate, and a cell-free culture solution was added to the blank control wells.\nDosing: 5 μl of the compound working solution (20×) was taken and added to the cell culture plate. 5 μl of a mixed solution of DMSO-cell culture solution was added to the solvent control and the blank control.\nThe 96-well culture plate was put back to the incubator for culture for 48 hours.\nThe following steps were performed according to the instructions of the Promega CellTiter-Glo Luminescent Cell Viability Assay Kit (Promega-G7571).\n(6) 80 μl of the CellTiter-Glo working solution was added to each well. The cell plate was covered with aluminum foil to protect it from light.\nThe culture plate was shaken on an orbital shaker for 2 minutes to induce cell lysis.\nThe culture plate was allowed to stand at room temperature for 10 minutes to stabilize a luminescent signal."}, "[3]": {"tested_on": "hepatoma cell line Huh-7, and breast cancer cell lines T47D and MCF-7", "test": "Previous work: in vitro cultured human solid tumor cells treated with 3′-deoxyadenosine alone", "format": "cell-based", "conditions": "Huh-7, T47D and MCF-7, inventors' previous work", "from_the_text": "However, its effect was still not satisfactory."}, "[4]": {"tested_on": "human breast cancer xenografts (MCF-7)", "test": "Experiment 1: suppression of breast cancer (MCF-7) xenografts with capecitabine and 3′-deoxyadenosine", "format": "in vivo, BALB/c nude mouse", "conditions": "capecitabine 400 mg/Kg/day", "experimental": "as §1\n(§2) The inoculated well-grown subcutaneously xenografted tumors were removed and cut into tumor tissue blocks with a size of about 2×2×2 mm for later use. After being anesthetized, the mice were placed in the left lateral decubitus position, the tumor tissue blocks were put into the armpits of the mice, the skin was sutured and disinfected, and then the mice were put back into the cages and fed normally. The mice were grouped after the tumors grew to have a diameter of about 7 to 8 mm. […] The longer diameter (a) and shorter diameter (b) of each of the solid tumors were measured twice per week after the first administration, the tumor volume was calculated according to the formula: volume (V)=½×a×b^2, and the animals were weighed. […] The data obtained were analyzed by SPSS statistical analysis software. […]"}, "[5]": {"tested_on": "human gastric cancer xenografts (SGC-7901)", "test": "Experiment 6: suppression of gastric cancer (SGC-7901) xenografts with capecitabine and 3′-deoxyadenosine", "format": "in vivo, BALB/c nude mouse", "conditions": "capecitabine 400 mg/Kg, 27th day", "excerpt": "(§3) The inoculated well-grown subcutaneously xenografted tumors were removed and cut into tumor tissue blocks with a size of about 2×2×2 mm for later use. After being anesthetized, the mice were placed in the left lateral decubitus position, the tumor tissue blocks were put into the armpits of the mice, the skin was sutured and disinfected, and then the mice were put back into the cages and fed normally. The mice were grouped after the tumors grew to have a diameter of about 7 to 8 mm. […] The general symptoms of the animals were observed before and after the administration. The longer diameter (a) and shorter diameter (b) of each of the solid tumors were measured twice per week after the first administration, the tumor volume was calculated according to the formula: volume (V)=½×a×b^2, and the animals were weighed. The drug was discontinued after administration for 14 days. On the 7th day after stopping the administration, the animals were weighed and then were sacrificed by cervical dislocation, and the solid tumors were removed and weighed. The data obtained were analyzed by SPSS statistical analysis software."}, "[6]": {"tested_on": "human colon cancer xenografts (HT-29)", "test": "Experiment 7: suppression of colon cancer (HT-29) xenografts with capecitabine and 3′-deoxyadenosine", "format": "in vivo, BALB/c nude mouse", "conditions": "capecitabine 400 mg/Kg, 31st day", "excerpt": "as §3"}, "[7]": {"tested_on": "human leukemia xenografts (HL60)", "test": "Experiment 2: suppression of leukemia (HL60) xenografts with doxorubicin and 3′-deoxyadenosine", "format": "in vivo, BALB/c nude mouse", "experimental": "as §1, §2"}, "[8]": {"tested_on": "human hepatoma xenografts (Huh-7)", "test": "Experiment 5: suppression of hepatoma (Huh-7) xenografts with doxorubicin and 3′-deoxyadenosine", "format": "in vivo, BALB/c nude mouse", "conditions": "doxorubicin 2.5 mg/kg, 37th day", "excerpt": "as §3\nOn the 23rd day after inoculation of the mice with human hepatoma Huh-7 cells, xenografted tumor models were successful, and then treated with drugs."}, "[9]": {"tested_on": "human gastric cancer (SGC 7901)", "test": "Experiment 9: suppression of gastric cancer (SGC 7901) xenografts with 5-fluorouracil and 3′-deoxyadenosine", "format": "in vivo, BALB/c nude mouse", "conditions": "5-fluorouracil 6 mg/kg, intravenous, 28th day", "excerpt": "as §3\nEach group was administered with a drug once daily (volume 0.2 mL, intravenously) and measured twice per week."}}, "note": "“And” between values parts separate entries of the source, which are not always exact repeats. Equal entries are not always repeated."}
{"smiles": "CC(=O)O[C@H]1C(=O)[C@@]2(C)[C@H]([C@H](OC(=O)c3ccccc3)[C@]3(O)C[C@H](OC(=O)[C@H](O)[C@@H](NC(=O)c4ccccc4)c4ccccc4)C(C)=C1C3(C)C)[C@]1(OC(C)=O)CO[C@@H]1C[C@@H]2O", "note": "[paclitaxel]", "values": [{"measurement": "IC50", "setting": "[1]", "value": 742, "unit": "nM"}]}
{"smiles": "N.N.[Cl][Pt][Cl]", "note": "[cisplatin]", "values": [{"measurement": "mice died", "setting": "[2]; cisplatin 5 mg/kg/day, 7th day, 7 mice per group", "value": "two nude mice died"}, {"measurement": "mice died", "setting": "[2]; cisplatin 5 mg/kg/day, 10th day, 7 mice per group", "value": 4}, {"measurement": "mice died (total)", "setting": "[2]; cisplatin 5 mg/kg/day, reduced to 2.5 mg/kg on the 15th day, 18th day, 7 mice per group", "value": "5 and 5/7"}, {"measurement": "inhibitory effect on tumor growth", "setting": "[2]; high-dosage cisplatin (5 mg/kg)", "value": "good inhibitory effect on tumor growth"}]}
{"smiles": "Nc1ncnc2c1ncn2[C@@H]1O[C@H](CO)C[C@H]1O", "note": "[3′-deoxyadenosine]", "values": [{"measurement": "IC50", "setting": "Huh-7 (human hepatoma)", "value": 1350, "unit": "nM"}, {"measurement": "inhibition of proliferation", "setting": "[3]", "value": "could inhibit the proliferation"}, {"measurement": "IC50", "setting": "[1]", "value": 850, "unit": "nM"}]}
{"smiles": "CCCCCOC(=O)Nc1nc(=O)n([C@@H]2O[C@H](C)[C@@H](O)[C@H]2O)cc1F", "note": "[capecitabine]", "values": [{"measurement": "experimental animals died", "setting": "[4]; 11th day of the experiment, 7 mice per group", "value": 5}, {"measurement": "tumor inhibition rate", "setting": "[4]; 11th day, vs normal saline group", "value": 86.1, "unit": "%"}, {"measurement": "inhibition rate", "setting": "[5]", "value": 57.8, "unit": "%"}, {"measurement": "inhibition rate", "setting": "[6]", "value": 80.1, "unit": "%"}]}
{"smiles": "COc1cccc2c1C(=O)c1c(O)c3c(c(O)c1C2=O)C[C@@](O)(C(=O)CO)C[C@@H]3O[C@H]1C[C@H](N)[C@H](O)[C@H](C)O1", "note": "[doxorubicin]", "values": [{"measurement": "tumor-growth inhibition rate", "setting": "[7]; doxorubicin 60 mg/kg/week (20 mg/kg each time, 3 times/week), 14th day", "value": 21.4, "unit": "%"}, {"measurement": "experimental animals died", "setting": "[7]; doxorubicin 60 mg/kg/week, 14th day of the experiment, 7 mice per group", "value": "one experimental animal in this group died"}, {"measurement": "tumor-growth inhibition rate", "setting": "[8]", "value": 25.7, "unit": "%"}, {"measurement": "IC50", "setting": "Huh-7 (human hepatoma)", "value": 1200, "unit": "nM"}, {"measurement": "IC50", "setting": "[1]", "value": 510, "unit": "nM"}]}
{"smiles": "O=c1[nH]cc(F)c(=O)[nH]1", "note": "[5-fluorouracil]", "values": [{"measurement": "inhibition rate", "setting": "[9]", "value": 67.5, "unit": "%"}]}
